Test results reported in patent US20210346414A1, “APPLICATION OF GLYCOSIDES IN THE PREPARATION OF DRUGS FOR PREVENTING AND TREATING DIABETES COMPLICATIONS” (CHENGDU SINNOCEAN BIOTECHNOLOGY CO., LTD., priority 2018, published 2021).
Values joined by “and” are separate entries in the source; they are usually repeats but may differ in a detail not shown here. Equal values may be shown once.

Experiments:
Format in all cases: in vivo
[1] = tested on: spontaneous type II diabetic db/db mice; assay: Kidney histopathology grading after treatment; set-up: key to kidney / Basophilic changes in renal tubules / Monocyte infiltration / Hypertrophy of renal tubular epithelial cells / Dilation of the renal pelvis / Protein casts / Glomerular dilation / Glomerulosclerosis: “N” means normal tissue morphology and structure; “E” means changed tissue morphology and structure; “—” means no such pathological change; settings: 12 weeks
Experimental: (§1) Design of test groups: db/m group, db/db mice are divided into the following six groups: blank control group (no glucose), negative control group (model group), positive control group (350 mg/kg metformin), H2 low dose group (40 mg/kg), H2 medium dose group (80 mg/kg), H2 high dose group (160 mg/kg); • Number of animals: 12 mice for each group; • Sex: male;
(§2) Administration frequency: once a day, for 12 weeks; db/m group, blank control group and negative control group: receiving distilled water; positive control group: positive drug metformin; other administration groups: receiving different dose of test drug H2, respectively; the day of administration was defined as the first day of the test.
After completion of the test, the kidney was dissected and collected. The histopathological results of the kidney indicated the grades by referring to the principles and standards in literature
(Fermented Milk has Anti-diabetic Effects: Anti-diabetic Effect of Fermented Milk Containing Conjugated Linoleic Acid on Type II Diabetes Mellitus, Korean J. Food Sci. An., Vol. 36, No. 2 (2016)).

[2] = tested on: spontaneous type II diabetic db/db mice; assay: Prevention and treatment of retinopathy: pathological staining of eyeball, grading of retinal ganglion cell layer degeneration; set-up: key to Left eye / Right eye / Retinal degeneration, ganglion cell layer (right eye) / Retinal degeneration, ganglion cell layer (left eye): “N” means normal tissue morphology and structure; “E” means changed tissue morphology and structure; “—” means no such pathological change; settings: 12 weeks
Experimental: as §1, §2
During the test period, compared with the animals in normal control group, the retinal ganglion cell layer of animals in each group had different degrees of degeneration except for the test drug H2 high-dose group. According to the severity of the degeneration of the retinal ganglion cell layers, there were 0-4 grades according to the pathological grading principle in the literature
(Fermented Milk has Anti-diabetic Effects: Anti-diabetic Effect of Fermented Milk Containing Conjugated Linoleic Acid on Type II Diabetes Mellitus, Korean J. Food Sci. An., Vol. 36, No. 2 (2016)). The larger the value, the more severe the disease.

[3] = tested on: spontaneous type II diabetic db/db mice; assay: Kidney function: blood urea nitrogen (UREA), blood creatinine (CREA) and renal index before and after administration; settings: MEAN ± SEM
Experimental: as §1, §2
(1) Changes of blood urea nitrogen (UREA) and blood creatinine (CREA) as well as renal index before and after administration

[4] = tested on: spontaneous type II diabetic db/db mice; assay: Hypoglycemic effect test: tail vein blood glucose during 12 weeks of dosing
Experimental: as §1, §2
Sampling frequency: blood glucose was detected once every 2 weeks after grouping, and then after glucose was administrated, the blood glucose was further measured. Sampling site: tail vein; sampling volume: about 1 drop; blood glucose detection: real-time detection by blood glucose meter.

[5] = metformin 350 mg/kg oral gavage once a day, individual animals
[6] = metformin 350 mg/kg oral gavage once a day, individual animals, grade
[7] = metformin 350 mg/kg oral gavage once a day, individual animals, grades 0-4, larger = more severe
[8] = metformin 350 mg/kg oral gavage once a day, 12 weeks
[9] = metformin 350 mg/kg oral gavage once a day, MEAN ± SEM

SMILES: CN(C)C(=N)N=C(N)N [metformin, Metformin]
- kidney [1, 5]: E
- Basophilic changes in renal tubules [1, 6]: — (8×) and 1
- Dilation of the renal pelvis [1, 6]: —
- Glomerular dilation [1, 6]: —
- Glomerulosclerosis [1, 6]: 1 and — (8×)
- Hypertrophy of renal tubular epithelial cells [1, 6]: —
- Monocyte infiltration [1, 6]: —
- Proliferation of glomerular mesangum or mesangial cells [1, 6]: 1 (3×) and 2 (6×)
- Protein casts [1, 6]: —
- Proliferation of glomerular mesangum or mesangial cells (in words) ([1]; metformin 350 mg/kg, no statistical difference vs. negative control group): showed the effect trend of alleviating the proliferation of glomerular mesangum or mesangial cells
- Left eye [2, 5]: E (3×) and N (6×)
- Right eye [2, 5]: N (8×) and E
- Retinal degeneration, ganglion cell layer (left eye) [2, 7]: 2 (2×) and — (6×) and 1
- Retinal degeneration, ganglion cell layer (right eye) [2, 7]: — (8×) and 1
- Improvement of retinopathy (in words) ([2]; metformin 350 mg/kg, vs. negative control group): hardly improved the symptoms of retinopathy
- Before administration CREA ([3]; metformin 350 mg/kg group, before administration (baseline)): 4.50 ± 1.38 µmol/L
- Change rate of CREA [3, 8]: 0.83 ± 0.17
- Renal index [3, 8]: 0.43 ± 0.03%
- Blood glucose concentration, Administrating for 15 days [4, 9]: 6.95 ± 0.57 mmol/L
- Blood glucose concentration, Administrating for 29 days [4, 9]: 8.30 ± 0.94 mmol/L
- Blood glucose concentration, Administrating for 43 days [4, 9]: 8.93 ± 1.15 mmol/L
- Blood glucose concentration, Administrating for 57 days [4, 9]: 8.92 ± 1.12 mmol/L
- Blood glucose concentration, Administrating for 72 days [4, 9]: 8.80 ± 1.11 mmol/L
- Blood glucose concentration, Administrating for one day [4, 9]: 13.78 ± 1.74 mmol/L
- Hypoglycemic effect (in words) ([4]; metformin 350 mg/kg, vs. negative control group, from the 15th day, P<0.001): could significantly reduce the blood sugar of db/db mice
